According to PMC10041525, “New Dual Inhibitors of Bacterial Topoisomerases with Broad-Spectrum Antibacterial Activity and In Vivo Efficacy against Vancomycin-Intermediate Staphylococcus aureus” (Journal of Medicinal Chemistry, 2023):
Values after ≈ are worked out from the molar mass of the structure shown. Like-named read-outs stand apart in the source and are kept apart here.

Columns and labels:
E. coli ATCC 25922 [1] = assay: IHMA QC MIC; type: cell-based; details: Escherichia coli, read-out: MIC
[2] = test system: Haemophilus influenzae (n = 14); assay: MIC broth microdilution at IHMA Europe; type: cell-based, H. influenzae; details: for MIC: Haemophilus influenzae, read-out: MIC
S. pneumoniae ATCC 49619 [3] = test system: S. pneumoniae ATCC 49619; parameters: method as in earlier work; details: QC range for S. pneumoniae ATCC 49619, ref CLSI; cited from earlier work
P. aeruginosa ATCC 27853 = assay: IHMA QC MIC; type: cell-based; details: Pseudomonas aeruginosa, read-out: MIC
E. coli ATCC 25922 [4] = test system: E. coli ATCC 25922; parameters: method as in earlier work; details: QC range for E. coli ATCC 25922, ref CLSI; cited from earlier work
E. faecium (n = 13) = assay: MIC broth microdilution at IHMA Europe; type: cell-based; details: for MIC: Enterococcus faecium, read-out: MIC
E. faecalis ATCC 29212 [5] = test system: E. faecalis ATCC 29212; parameters: method as in earlier work; details: QC range for E. faecalis ATCC 29212, ref CLSI; cited from earlier work
H. influenzae ATCC 49766 = assay: IHMA QC MIC; type: cell-based
Text: (§1) Supplement jm2c01905_si_004.xlsx, sheet "QC" | column: MIC [µg/mL]

H. influenzae ATCC 49247 = assay: IHMA QC MIC; type: cell-based; details: Haemophilus influenzae, read-out: MIC
Text: as §1

E. faecalis ATCC 29212 [6] = assay: IHMA QC MIC; type: cell-based
Text: as §1

S. pneumoniae ATCC 49619 [7] = assay: IHMA QC MIC; type: cell-based
Text: as §1

S. pneumoniae (n = 12) = assay: MIC broth microdilution at IHMA Europe; type: cell-based; details: for MIC: Streptococcus pneumoniae, read-out: MIC

SMILES: CC1(C)S[C@@H]2[C@H](NC(=O)[C@H](N)c3ccccc3)C(=O)N2[C@H]1C(=O)O [Ampicillin, ampicillin]
- MIC (E. coli ATCC 25922 [1]; ATCC25922, QC strain E. coli ATCC 25922, test date 2021-11-11): 8 µg/mL (≈ 22.9 µM)
- MIC (E. coli ATCC 25922 [1]; ATCC25922, QC strain E. coli ATCC 25922, test date 2021-11-26): 4 µg/mL (≈ 11.4 µM)
- MIC ([2]; H. influenzae IHMA N° 1227715): 16 µg/mL (≈ 45.8 µM)
- MIC ([2]; H. influenzae IHMA N° 1241620): 4 µg/mL (≈ 11.4 µM)
- MIC ([2]; H. influenzae IHMA N° 1244149): 16 µg/mL (≈ 45.8 µM)
- MIC ([2]; H. influenzae IHMA N° 1249803): 2 µg/mL (≈ 5.72 µM)
- MIC ([2]; H. influenzae IHMA N° 1254355): 2 µg/mL (≈ 5.72 µM)
- MIC ([2]; H. influenzae IHMA N° 1258580): 16 µg/mL (≈ 45.8 µM)
- MIC ([2]; H. influenzae IHMA N° 1262734): 8 µg/mL (≈ 22.9 µM)
- MIC ([2]; H. influenzae IHMA N° 1272723): 16 µg/mL (≈ 45.8 µM)
- MIC ([2]; H. influenzae IHMA N° 1286846): 8 µg/mL (≈ 22.9 µM)
- MIC ([2]; H. influenzae IHMA N° 1337530): 32 µg/mL (≈ 91.6 µM)
- MIC ([2]; H. influenzae IHMA N° 1440085): 8 µg/mL (≈ 22.9 µM)
- MIC ([2]; H. influenzae IHMA N° 1479509): 8 µg/mL (≈ 22.9 µM)
- MIC ([2]; H. influenzae IHMA N° 1952952): 4 µg/mL (≈ 11.4 µM)
- MIC ([2]; H. influenzae IHMA N° 2047461): 32 µg/mL (≈ 91.6 µM)
- Cumulative % at MIC ([2]; MIC 2 µg/mL): 14.3%
- No. of isolates at MIC ([2]; MIC 2 µg/mL): 2
- Cumulative % at MIC ([2]; MIC […] µg/mL): 85.7%
- No. of isolates at MIC ([2]; MIC […] µg/mL): 4
- Cumulative % at MIC ([2]; MIC 32 µg/mL): 100.0%
- No. of isolates at MIC ([2]; MIC 32 µg/mL): 2
- MIC, CLSI Range (S. pneumoniae ATCC 49619 [3]): 0,06 - 0,25 µg/mL
- MIC (P. aeruginosa ATCC 27853; ATCC27853, QC strain P. aeruginosa ATCC 27853, test date 2021-11-11): > 32 µg/mL
- MIC (P. aeruginosa ATCC 27853; ATCC27853, QC strain P. aeruginosa ATCC 27853, test date 2021-11-26): > 32 µg/mL
- MIC, CLSI Range (E. coli ATCC 25922 [4]): 2 to 8 µg/mL
- MIC (E. faecium (n = 13); E. faecium IHMA N° 1764866): > 32 µg/mL
- MIC (E. faecium (n = 13); E. faecium IHMA N° 1765436): > 32 µg/mL
- MIC (E. faecium (n = 13); E. faecium IHMA N° 1765746): > 32 µg/mL
- MIC (E. faecium (n = 13); E. faecium IHMA N° 1893573): > 32 µg/mL
- MIC (E. faecium (n = 13); E. faecium IHMA N° 1893846): > 32 µg/mL
- MIC (E. faecium (n = 13); E. faecium IHMA N° 1893942): > 32 µg/mL
- MIC (E. faecium (n = 13); E. faecium IHMA N° 1894055): > 32 µg/mL
- MIC (E. faecium (n = 13); E. faecium IHMA N° 1897027): > 32 µg/mL
- MIC (E. faecium (n = 13); E. faecium IHMA N° 1897101): > 32 µg/mL
- MIC (E. faecium (n = 13); E. faecium IHMA N° 1904592): > 32 µg/mL
- MIC (E. faecium (n = 13); E. faecium IHMA N° 2075051): > 32 µg/mL
- MIC (E. faecium (n = 13); E. faecium IHMA N° 2077718): > 32 µg/mL
- MIC (E. faecium (n = 13); E. faecium IHMA N° 2083787): > 32 µg/mL
- Cumulative % at MIC (E. faecium (n = 13); MIC >32 µg/mL): 100.0%
- No. of isolates at MIC (E. faecium (n = 13); MIC >32 µg/mL): 13
- MIC, CLSI Range (E. faecalis ATCC 29212 [5]): 0,5 - 2 µg/mL
- MIC (H. influenzae ATCC 49766; Haemophilus influenzae, ATCC49766, QC strain H. influenzae ATCC 49766, test date 2021-11-11, read-out: MIC): 0.12 µg/mL (≈ 0.343 µM)
- MIC (H. influenzae ATCC 49766; QC strain H. influenzae ATCC 49766, test date 2021-11-26): 0.12 µg/mL (≈ 0.343 µM)
- MIC (H. influenzae ATCC 49247; ATCC49247, QC strain H. influenzae ATCC 49247, test date 2021-11-11): 4 µg/mL (≈ 11.4 µM)
- MIC (H. influenzae ATCC 49247; ATCC49247, QC strain H. influenzae ATCC 49247, test date 2021-11-26): 4 µg/mL (≈ 11.4 µM)
- MIC (E. faecalis ATCC 29212 [6]; Enterococcus faecalis, ATCC29212, QC strain E. faecalis ATCC 29212, test date 2021-11-11, read-out: MIC): 1 µg/mL (≈ 2.86 µM)
- MIC (E. faecalis ATCC 29212 [6]; QC strain E. faecalis ATCC 29212, test date 2021-11-26): 1 µg/mL (≈ 2.86 µM)
- MIC (S. pneumoniae ATCC 49619 [7]; QC strain S. pneumoniae ATCC 49619, test date 2021-11-26): 0.06 µg/mL (≈ 0.172 µM)
- MIC (S. pneumoniae ATCC 49619 [7]; Streptococcus pneumoniae, ATCC49619, QC strain S. pneumoniae ATCC 49619, test date 2021-11-11, read-out: MIC): 0.06 µg/mL (≈ 0.172 µM)
- Cumulative % at MIC (S. pneumoniae (n = 12); MIC 0.5 µg/mL): 25.0%
- No. of isolates at MIC (S. pneumoniae (n = 12); MIC 0.5 µg/mL): 2
- Cumulative % at MIC (S. pneumoniae (n = 12); MIC 1 µg/mL): 33.3%
- No. of isolates at MIC (S. pneumoniae (n = 12); MIC 1 µg/mL): 1
- Cumulative % at MIC (S. pneumoniae (n = 12); MIC 2 µg/mL): 66.7%
- No. of isolates at MIC (S. pneumoniae (n = 12); MIC 2 µg/mL): 4
- No. of isolates at MIC (S. pneumoniae (n = 12); MIC […] µg/mL): 2
- Cumulative % at MIC (S. pneumoniae (n = 12); MIC ≤0.03 µg/mL): 8.3%
- No. of isolates at MIC (S. pneumoniae (n = 12); MIC ≤0.03 µg/mL): 1
- MIC (S. pneumoniae (n = 12); S. pneumoniae IHMA N° 1775387): 4 µg/mL (≈ 11.4 µM)
- MIC (S. pneumoniae (n = 12); S. pneumoniae IHMA N° 1776057): 2 µg/mL (≈ 5.72 µM)
- MIC (S. pneumoniae (n = 12); S. pneumoniae IHMA N° 1785617): 8 µg/mL (≈ 22.9 µM)
- MIC (S. pneumoniae (n = 12); S. pneumoniae IHMA N° 1800765): 0.5 µg/mL (≈ 1.43 µM)
- MIC (S. pneumoniae (n = 12); S. pneumoniae IHMA N° 1811259): 2 µg/mL (≈ 5.72 µM)
- MIC (S. pneumoniae (n = 12); S. pneumoniae IHMA N° 1831562): ≤ 0.03 µg/mL
- MIC (S. pneumoniae (n = 12); S. pneumoniae IHMA N° 1902609): 4 µg/mL (≈ 11.4 µM)
- MIC (S. pneumoniae (n = 12); S. pneumoniae IHMA N° 1979675): 2 µg/mL (≈ 5.72 µM)
- MIC (S. pneumoniae (n = 12); S. pneumoniae IHMA N° 1991963): 1 µg/mL (≈ 2.86 µM)
- MIC (S. pneumoniae (n = 12); S. pneumoniae IHMA N° 2057487): 2 µg/mL (≈ 5.72 µM)
- MIC (S. pneumoniae (n = 12); S. pneumoniae IHMA N° 2073087): 8 µg/mL (≈ 22.9 µM)
- MIC (S. pneumoniae (n = 12); S. pneumoniae IHMA N° 2117109): 0.5 µg/mL (≈ 1.43 µM)
